From patent US20250221936A1, “ENGINEERED HEMICHANNELS, ENGINEERED VESICLES, AND USES THEREOF” (VIRGINIA TECH INTELLECTUAL PROPERTIES, INC., priority 2018, published 2025)
Entries after “also recorded” stand apart in the source; their conditions may differ.

How the values were obtained:
PKC-ε = molecular target: T1, PKC-ε (Homo sapiens, UniProt Q02156); assay: EDC cross-linking and MS/MS, PKC-ε; assay type: binding
T1 construct: purchased Life 37717L
T1 sequence (Q02156 1-737): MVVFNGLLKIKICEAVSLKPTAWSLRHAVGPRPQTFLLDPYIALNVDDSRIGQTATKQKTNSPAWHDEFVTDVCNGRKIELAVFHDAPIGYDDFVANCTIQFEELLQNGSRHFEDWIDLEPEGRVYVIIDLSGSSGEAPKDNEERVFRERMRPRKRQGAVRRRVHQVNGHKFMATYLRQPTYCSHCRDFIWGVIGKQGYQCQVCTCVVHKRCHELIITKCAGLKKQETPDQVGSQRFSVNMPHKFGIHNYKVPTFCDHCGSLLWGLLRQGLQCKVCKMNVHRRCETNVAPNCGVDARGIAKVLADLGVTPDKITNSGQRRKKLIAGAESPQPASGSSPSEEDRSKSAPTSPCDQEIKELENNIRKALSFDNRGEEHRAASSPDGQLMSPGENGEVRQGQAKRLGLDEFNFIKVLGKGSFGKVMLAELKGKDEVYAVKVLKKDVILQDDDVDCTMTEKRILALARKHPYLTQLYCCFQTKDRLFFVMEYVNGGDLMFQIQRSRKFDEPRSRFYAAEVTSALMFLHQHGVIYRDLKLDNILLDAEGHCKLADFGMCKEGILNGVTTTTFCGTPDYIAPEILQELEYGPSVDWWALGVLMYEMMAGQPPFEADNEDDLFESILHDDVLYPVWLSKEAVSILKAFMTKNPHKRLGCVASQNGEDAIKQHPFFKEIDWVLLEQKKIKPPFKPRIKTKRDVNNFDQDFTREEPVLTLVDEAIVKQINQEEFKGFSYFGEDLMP
Procedure: To characterize the interaction between the Cx43 CT substrate and peptides, the in vitro kinase assay was performed as above with modification and the constituents then subjected to a cross-linking reaction. The assay buffer used was 20 mM 3-(N-morpholino) propanesulfonic acid (MOPS), pH 7.2. All other reagents present in the kinase reaction were maintained as described above. The reaction was allowed to proceed at 37° C. for 15 minutes. Afterwards, the carbodiimide crosslinker 1-Ethyl-3-(3-dimethylaminopropyl) carbodiimide HCl (EDC) (Thermo, 22980) was added to each solution for a final concentration of 20 mM. The solution was allowed to cross-link for one hour at room temperature. The reaction was stopped by the addition of 4×LDS loading buffer, boiled for 5 minutes and subsequently separated by PAGE. The resulting gel was stained in Coomassie brilliant blue (Sigma, B0770) for two hours and destained in a solution of 4% methanol 7% acetic acid overnight. Gel bands were subsequently excised for mass spectrometric analysis. For the direct interaction between protein and peptides, PBS, pH 7.5 was used as the coupling buffer. The protein (50 μg/ml) and peptide (25 μM) were allowed to react at room temperature for one hour before EDAC was added to the reaction mixture. The reaction was Western blotted for Cx43, GST or NeutroAvidin. […]

[1] = test system: U87 MG glioblastoma cells; settings: cited from earlier work
implants = assay: Inflammatory infiltrate at implants, myeloperoxidase stain; assay type: in vivo; settings: 24 hour time point
Description: In attempting to quantify the neutrophil infiltrate using a myeloperoxidase stain, the inventors observed that some of the cells stained darker than others. Upon further investigation, these cells were not neutrophils as but rather were macrophages.

Cx43-Hela cells = assay: Cx43 and ZO-1 immunofluorescent labeling; assay type: cell-based; settings: 10 μM for 2, 4, 24, or 48 hours
Procedure: Given that the 10UM concentration of peptide was not toxic to cells, the inventors treated Cx43-Hela cells with 10 μM JM1 or JM2 for 2, 4, 24, or 48 hours followed by fixation and immunofluorescent labeling of Cx43 and ZO-1. Said peptides can be loaded into the provided EVs and can elicit results similar to those observed for naked peptide as follows. […] However, the most striking effects were on ZO-1 organization. In control cells ZO-1 localized to cell borders, often at sites of small, finger-like projections between the cells. Cytoplasmic ZO-1 was also notable. In JM-treated cells a strong contrast in the ratio of cell border to cytoplasmic ZO-1 was found, with relative levels at cell borders being increased over controls. […] There was also a noticeable increase in the number of cells per area of field, supporting the earlier observation that JM2 treated cells appeared to proliferate and survive at an increased rate.

Row | Sequence | interaction with PKC-ε (PKC-ε) | aggregation [1] | type of inflammatory infiltrate (implants) | Cx43 and ZO-1 localization (Cx43-Hela cells)
1 | RQPKIWFPNRRKPWKKRPRPDDLEI [alpha CT1] | no evidence for interaction between PKCE and alpha CT1 | higher degree of aggregation | the primary inflammatory infiltrate was macrophages | 
2 | VFFKGVKDRVKGRSD [JM2] |  |  |  | greater cytoplasmic Cx43 was observed; also recorded: well defined cell-cell interfaces
